According to US20230047825A1, “ANTIMICROBIAL PEPTIDES” (priority 2019, published 2023):
In brackets after ≈: the same amount, converted by molar mass. Where two headings read alike, the source gives them in different places.

Columns and labels:
[1] = system: Staphylococcus aureus ATCC 19636 (Smith); experiment: microbe, parasite or virus in culture; conditions: for MIC: Staphylococcus aureus
Procedure: (§1) The S. aureus strains ATCC 29213, ATCC 19636, ATCC 33591 (MRSA), BAA-1556 (MRSA USA 300) were obtained from the American Type Culture Collection (ATCC). […] The species identity was confirmed with 16S rRNA analysis.
(§2) Two broth mediums were used, Mueller Hinton Broth and RPMI 1640+5% fetal bovine serum. Test substances were evaluated in 11-point titrations and performed in duplicate.
(§3) The direct colony suspension method was used to prepare inoculated broth. Isolated colonies were taken from an 18-24 h culture plate. Optical density measurements (OD620nm) were used to estimate the bacterial density. […] The stock solutions were diluted by 2-fold serial titrations with their respective vehicles for a total of 11 concentrations.
(§4) A 4 μL aliquot of each dilution was added to 196 μL of broth medium seeded with the organism in wells of a sterilized 96 well polypropylene plate (Nunc™ 249949) using aluminum foil as cover. The final bacterial count was 2 to 8×10^5 CFU/mL. […] The final test article concentration range was 32 to 0.0313 μg/mL.
(§5) Each test substance dilution was evaluated in duplicate on one test occasion. […] Plates were incubated at 35-37° C. for 18 h. The test plates were visually examined and each well was visually scored for growth or complete inhibition of growth. The MIC value was recorded.

[2] = system: Staphylococcus aureus ATCC 29213; experiment: microbe, parasite or virus in culture; conditions: for MIC: Staphylococcus aureus
Procedure: as §1, §2, §3, §4, §5

[3] = system: Staphylococcus aureus ATCC 33591 (MRSA); experiment: microbe, parasite or virus in culture; conditions: for MIC: Staphylococcus aureus
Procedure: as §1, §2, §3, §4, §5

[4] = system: Staphylococcus aureus ATCC BAA-1556 (USA300, MRSA); experiment: microbe, parasite or virus in culture; conditions: for MIC: Staphylococcus aureus
Procedure: as §1, §2, §3, §4, §5

[5] = system: Staphylococcus aureus VRS-2 (VanA, VRSA); experiment: microbe, parasite or virus in culture; conditions: for MIC: Staphylococcus aureus, VRSA
Procedure: as §1, §2, §3, §4, §5

EMRSA-15 lung infection = system: EMRSA-15 lung infection
Procedure: Murine EMRSA-15 lung infection model. In one embodiment this was carried out using the method described previously,^58 an overnight culture of EMRSA-15 was prepared in tryptic soy broth (TSB). EMRSA-15 was cultured in TSB overnight at 37° C., adjusted to a starting OD600 of 0.025, and grown for additional 4 h for agar beads preparation. EMRSA-15 was embedded into agar beads by mixing the overnight culture with molten tryptic soy agar, which was then spun into warmed mineral oil. The preparation was cooled and centrifuged at 2,700 g, the remaining oil was eliminated and the beads were washed in sterile PBS. The colony forming unit (cfu) content of the beads slurry was subsequently quantified on TSA plates and the beads slurry then diluted to either 2×10^7 cfu/ml in sterile PBS to deliver a final dose of either 1×10^6 cfu/mouse. Animal work was performed in accordance with the Animals (Scientific Procedures) Act of 1986 (United Kingdom). On day 0, male C57B16J mice (8-10 weeks, Charles River) were anesthetized under Isoflurane and 50 μl inoculum of EMRSA-15 embedded in agar beads (10^6 cfu/mouse) was instilled directly into the respiratory tract via oropharyngeal dosing (o.a) to reduce severity associated with surgery. Sham control mice were inoculated with sterile PBS agar beads. […] Body weight was measured daily, and animals monitored at regular intervals for signs of pain and distress. 48 hours post pulmonary infection, animals were terminally euthanized using 25% Urethane via intra-peritoneal injection. Lungs, were removed and homogenized in 2 ml PBS. Samples were serially diluted 1:10 in PBS and plated for CFU count. Lung homogenates were then centrifuged at 14000 rpm for 30 min at 4° C. and the supernatants were stored at −80° C. for future analysis. For bronchoalveolar lavage fluid collection and analysis (total and differential cell count), a 22-gauge catheter was inserted into the trachea and BAL was recovered by instillation of 0.5 ml of sterile PBS three times and total cells counts were performed by adding Turks stain in a 1:1 ratio. Total cells were then enumerated on an improved Naubauer haemocytometer. BAL fluid was then centrifuged, and supernatants were stored at −20° C. Cytospin slides were prepared and 100 μl of BAL was added into a cytospin funnel and centrifuged at 1000 rpm for 1 minute on a medium acceleration. The slides were then stained using Diff-Quick (Dade, Biomap, Italy).
More suitably Murine EMRSA-15 lung infection model was carried out using the method described previously,^58 an overnight culture of EMRSA-15 was prepared in tryptic soy broth (TSB). EMRSA-15 was cultured in TSB overnight at 37° C., adjusted to a starting OD600 of 0.025, and grown for additional 4 h for agar beads preparation. EMRSA-15 was embedded into agar beads by mixing the overnight culture with molten tryptic soy agar, which was then spun into warmed mineral oil. The preparation was cooled and centrifuged at 2,700 g, the remaining oil was eliminated, and the beads were washed in sterile PBS. The colony forming unit (CFU) content of the beads slurry was subsequently quantified on TSA plates and the beads slurry then diluted to either 2×10^7 CFU/ml in sterile PBS to deliver a final dose of either 1×10^6 CFU/mouse. Animal work was performed in accordance with the Animals (Scientific Procedures) Act of 1986 (United Kingdom). On day 0, male C57B16J mice (8-10 weeks, Charles River) were anesthetized under Isoflurane and 50 μl inoculum of EMRSA-15 embedded in agar beads (10^6 CFU/mouse) was instilled directly into the respiratory tract via oropharyngeal dosing (o.a.) to reduce severity associated with surgery. Sham control mice were inoculated with sterile PBS agar beads.

[6] = system: P. aeruginosa RP73 lung infection; experiment: Murine P. aeruginosa RP73 lung infection model; format: in vivo, mouse
[7] = system: Klebsiella pneumoniae NCTC 13368; format: cell-based; conditions: KP13368; medium and unit not given; in µg/mL
Klebsiella pneumoniae M6 = format: cell-based; conditions: medium and unit not given, in µg/mL
[8] = system: Acinetobacter baumannii AYE; format: cell-based; conditions: AYE; medium and unit not given; in µg/mL
[9] = system: Acinetobacter baumannii ATCC 17978; format: cell-based; conditions: AB17978; medium and unit not given; in µg/mL
[10] = system: Pseudomonas aeruginosa PA01; experiment: Antibacterial activity assay (broth microdilution MIC); format: cell-based; conditions: medium and unit not given, in µg/mL
[11] = system: Pseudomonas aeruginosa NCTC 13437; experiment: as above; format: cell-based; conditions: PA13437; medium and unit not given; in µg/mL
[12] = system: Escherichia coli NCTC 12923; format: cell-based; conditions: EC12923; medium and unit not given; in µg/mL
[13] = system: MS Staphylococcus aureus ATCC 9144; format: cell-based; conditions: MSSA9144; medium and unit inferred
[14] = system: EMR Staphylococcus aureus-15 (EMRSA-15); format: cell-based; conditions: EMRSA15; medium and unit inferred
[15] = system: EMR Staphylococcus aureus-16 (EMRSA-16); format: cell-based; conditions: EMRSA16; medium and unit not given; in µg/mL
[16] = system: VS Enterococcus faecalis NCTC 775; experiment: Antibacterial activity assay (broth microdilution MIC); format: cell-based; conditions: VSE775; medium and unit not given; in µg/mL
VRE12201 = experiment: as above; format: cell-based, Enterococcus faecalis; conditions: medium and unit inferred
Excerpt: Antibacterial activity assay.
The bacterial strains used are as in the above examples. A table of strains is provided below to aid understanding.

C. albicans = experiment: MIC on initial panels, fungi; format: cell-based; conditions: unit inferred
HEK293 = experiment: Cytotoxicity assay (XTT); format: cell-based, human; conditions: unit not given
Procedure: (§6) Cytotoxicity assay. HeLa and HEK293 cell lines were purchased from ECACC and cultured in Eagle's Minimum Essential Media (EMEM) containing glutamine, supplemented with 10% FBS and 1× non-essential amino acids (NEAA) at 37° C., 10% CO2. Cytotoxicity was measured by incubating starter cultures of cells for 24 hours in a 96 well plate, gently removing the supernatant and replacing it with dilutions of peptides and controls, incubating for a further 24 hours and then staining of the cells with the second generation tetrazolium dye, XTT. […]

HeLa = experiment: Cytotoxicity assay (XTT); format: cell-based, human; design: Toxicity HeLa: unit not given beside the values; conditions: unit not given
Procedure: as §6

CN[C@H](CC(C)C)C(=O)N[C@H]1C(=O)N[C@@H](CC(N)=O)C(=O)N[C@H]2C(=O)N[C@H]3C(=O)N[C@H](C(=O)N[C@H](C(=O)O)c4cc(O)cc(O)c4-c4cc3ccc4O)[C@H](O)c3ccc(c(Cl)c3)Oc3cc2cc(c3O[C@@H]2O[C@H](CO)[C@@H](O)[C@H](O)[C@H]2O[C@H]2C[C@](C)(N)[C@H](O)[C@H](C)O2)Oc2ccc(cc2Cl)[C@H]1O [Vancomycin]
susceptibility category (CLSI M100 interpretive criteria) ([1]; ATCC 19636 (Smith)): S
MIC ([1]; ATCC19636, 18 h, read-out: MIC, antibiotic susceptibility, ATCC 19636 (Smith), CLSI M7-A10, unit inferred): 1 µg/mL (≈ 0.69 µM)
MIC ([1]; ATCC19636, ATCC 19636 (Smith), MHB): 0.5 µg/mL (≈ 0.345 µM)
MIC ([1]; ATCC19636, ATCC 19636 (Smith), RPMI + 5% FBS): 2 µg/mL
susceptibility category (CLSI M100 interpretive criteria) ([2]; ATCC 29213): S
MIC ([2]; ATCC29213, 18 h, read-out: MIC, antibiotic susceptibility, ATCC 29213, CLSI M7-A10, unit inferred): 0.5 to 1 µg/mL (≈ 0.345 to 0.69 µM)
MIC ([2]; ATCC29213, ATCC 29213, MHB): 0.5 µg/mL (≈ 0.345 µM)
MIC ([2]; ATCC29213, ATCC 29213, RPMI + 5% FBS): 2 µg/mL
susceptibility category (CLSI M100 interpretive criteria) ([3]; ATCC 33591): S
MIC ([3]; ATCC 33591, MHB): 1 µg/mL (≈ 0.69 µM)
MIC ([3]; ATCC 33591, RPMI + 5% FBS): 4 µg/mL
MIC ([3]; ATCC33591|MRSA, 18 h, read-out: MIC, antibiotic susceptibility, ATCC 33591, CLSI M7-A10, unit inferred): 1 µg/mL (≈ 0.69 µM)
susceptibility category (CLSI M100 interpretive criteria) ([4]; BAA-1556): S
MIC ([4]; ATCC BAA-1556, MHB): 0.5 µg/mL (≈ 0.345 µM)
MIC ([4]; ATCC BAA-1556, RPMI + 5% FBS): 2 µg/mL
MIC ([4]; ATCCBAA1556|BAA1556|MRSA|USA300, 18 h, read-out: MIC, antibiotic susceptibility, BAA-1556, CLSI M7-A10, unit inferred): 0.5 to 1 µg/mL (≈ 0.345 to 0.69 µM)
MIC ([5]; 18 h, read-out: MIC, antibiotic susceptibility, VRS-2, CLSI M7-A10, unit inferred): > 64 µg/mL
MIC ([5]; VRS-2, MHB): 4 µg/mL (≈ 2.76 µM)
MIC ([5]; VRS-2, RPMI + 5% FBS): > 32 µg/mL
susceptibility category (CLSI M100 interpretive criteria) ([5]; VRS-2): R
IL-6 and neutrophil recruitment in BAL (EMRSA-15 lung infection; following therapy, i.v.): reduced
macrophage numbers, TNFα and MCP-1 levels in BAL (EMRSA-15 lung infection; following therapy, i.v.): No effects
effective cumulative dose over 48 hrs (EMRSA-15 lung infection; murine EMRSA-15 lung infection): 200 mg/kg
mouse KC levels in BAL (EMRSA-15 lung infection; vancomycin 600 mg/kg or the two higher D-pleurocidin-KR doses (15, 1.5 mg/kg cumulative)): KC levels to fall to that of the uninfected group

NC[C@H]1O[C@H](O[C@H]2[C@H](O)[C@@H](O[C@H]3O[C@H](CO)[C@@H](O)[C@H](N)[C@H]3O)[C@H](N)C[C@@H]2N)[C@H](N)C[C@@H]1O [tobramycin]
reduction in lung CFU ([6]; 25 mg/kg tobramycin (p=0.0919)): 0.8 log10
reduction in lung CFU ([6]; cumulative dose of 200 mg/kg tobramycin over 30 hours): 1.4 log10

GWGSFFRRAAHAGRHAGRAALTHYL-NH2 [D-pleuro-VAKR, 6x substituted (4 K->R plus 2 V->A), D-amino acids]
MIC on initial panels [7]: 4-8
MIC on initial panels (Klebsiella pneumoniae M6): 4
MIC on initial panels [8]: 2
MIC on initial panels [9]: 2
MIC on initial panels [10]: 4
MIC on initial panels [11]: 32
MIC on initial panels [12]: 2
MIC on initial panels [13]: 8 µg/mL
MIC on initial panels [14]: 32 µg/mL
MIC on initial panels [15]: 64
MIC on initial panels [16]: 32-64
MIC on initial panels (VRE12201): 128 µg/mL
MIC on initial panels, Fungi (C. albicans): 32 µg/mL
Toxicity HEK293 (HEK293): 201.2 ± 25.1
Toxicity HeLa (HeLa): 124.0 ± 30.4
